Assay results from ChEMBL document CHEMBL2069196, “Synthesis and evaluation of novel 4-[(3H,3aH,6aH)-3-phenyl)-4,6-dioxo-2-phenyldihydro-2H-pyrrolo[3,4-d]isoxazol-5(3H,6H,6aH)-yl]benzoic acid derivatives as potent acetylcholinesterase inhibitors and anti-amnestic agents” (Bioorg Med Chem, 2012).
Active and inactive are the calls of the source. The calls are words filed in the database; no cut-off is given here.

system: Mus musculus; test: Antiamnesic activity in mouse assessed as inhibition of scopolamine-induced escape latency time at 10 mg/kg, ip measured on day 4 by Morris water maze test (reference value: 78.7 +/- 5.7 secs); assay type: functional; conditions: route intraperitoneal

SMILES	Time
COc1ccc([C@H]2[C@H]3C(=O)N(c4ccc(C(=O)O)cc4)C(=O)[C@H]3ON2c2ccc(C)cc2)cc1 (relative stereo)	49.1 s

system: Mus musculus; test: Antiamnesic activity in scopolamine-induced amnesia mouse model assessed as increase in time spent in target quadrant at 25 mg/kg, ip measured on day 5 by Morris water maze test; assay type: functional, organism-based; parameters: dose 25 mg/kg; conditions: not given

SMILES	Activity
COc1cc2c(cc1OC)C(=O)C(CC1CCN(Cc3ccccc3)CC1)C2 (centres undefined)	Active

system: Mus musculus; test: Antiamnesic activity in mouse assessed as inhibition of scopolamine-induced escape latency time at 10 mg/kg, ip measured on day 1 by Morris water maze test (reference value: 89.7 +/- 3.8 secs); assay type: functional; conditions: route intraperitoneal

SMILES	Time
COc1ccc([C@H]2[C@H]3C(=O)N(c4ccc(C(=O)O)cc4)C(=O)[C@H]3ON2c2ccc(C)cc2)cc1 (relative stereo)	81.2 s

system: Mus musculus; test: Antiamnesic activity in scopolamine-induced amnesia mouse model assessed as increase in time spent in target quadrant at 5 mg/kg, ip measured on day 5 by Morris water maze test; assay type: functional, organism-based; parameters: dose 5 mg/kg; conditions: not given

SMILES	Activity
COc1ccc([C@H]2[C@H]3C(=O)N(c4ccc(C(=O)O)cc4)C(=O)[C@H]3ON2c2ccc(C)cc2)cc1 (relative stereo)	Active

system: Mus musculus; test: Antiamnesic activity in mouse assessed as inhibition of scopolamine-induced escape latency time at 2 mg/kg, ip measured on day 4 by Morris water maze test (reference value: 78.7 +/- 5.7 secs); assay type: functional; conditions: route intraperitoneal

SMILES	Time
COc1ccc([C@H]2[C@H]3C(=O)N(c4ccc(C(=O)O)cc4)C(=O)[C@H]3ON2c2ccc(C)cc2)cc1 (relative stereo)	74.8 s

system: Mus musculus; test: Antiamnesic activity in mouse assessed as inhibition of scopolamine-induced escape latency time at 2 mg/kg, ip measured on day 1 by Morris water maze test (reference value: 89.7 +/- 3.8 secs); assay type: functional; conditions: route intraperitoneal

SMILES	Time
COc1ccc([C@H]2[C@H]3C(=O)N(c4ccc(C(=O)O)cc4)C(=O)[C@H]3ON2c2ccc(C)cc2)cc1 (relative stereo)	83.7 s

target: T1, Acetylcholinesterase (Rattus norvegicus, UniProt P37136); test: Inhibition of AChE activity in rat brain homogenate using acetylthiocholine as substrate by Ellman's method; assay type: tissue-based; conditions: not given
T1 sequence (P37136 whole entry): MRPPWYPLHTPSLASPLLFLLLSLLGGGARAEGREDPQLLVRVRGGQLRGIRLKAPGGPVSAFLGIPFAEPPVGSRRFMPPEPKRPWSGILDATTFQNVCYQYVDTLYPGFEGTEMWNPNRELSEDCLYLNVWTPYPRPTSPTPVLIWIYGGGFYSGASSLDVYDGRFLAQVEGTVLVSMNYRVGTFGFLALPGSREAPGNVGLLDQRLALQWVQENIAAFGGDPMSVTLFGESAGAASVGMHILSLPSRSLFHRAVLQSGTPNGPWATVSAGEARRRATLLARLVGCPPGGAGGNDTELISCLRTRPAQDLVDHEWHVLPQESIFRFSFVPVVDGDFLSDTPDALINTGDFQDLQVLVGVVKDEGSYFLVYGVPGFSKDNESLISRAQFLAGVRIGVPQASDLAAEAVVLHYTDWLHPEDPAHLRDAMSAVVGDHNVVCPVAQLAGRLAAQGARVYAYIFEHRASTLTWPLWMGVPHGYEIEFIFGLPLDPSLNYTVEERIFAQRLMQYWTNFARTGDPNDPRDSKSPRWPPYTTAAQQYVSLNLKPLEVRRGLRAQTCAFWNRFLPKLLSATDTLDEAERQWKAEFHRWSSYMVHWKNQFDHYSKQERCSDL

SMILES	IC50
Cc1ccc(N2O[C@H]3C(=O)N(c4ccc(C(=O)O)cc4)C(=O)[C@H]3[C@@H]2c2ccccc2[N+](=O)[O-])cc1 (relative stereo)	25.2 nM
O=C(O)c1ccc(N2C(=O)[C@H]3[C@H](ON(c4ccccc4)[C@H]3c3ccccc3[N+](=O)[O-])C2=O)cc1 (relative stereo)	26.1 nM
Cc1ccc(N2O[C@H]3C(=O)N(c4ccc(C(=O)O)cc4)C(=O)[C@H]3[C@@H]2c2cccc(Cl)c2)cc1 (relative stereo)	23.8 nM
O=C(O)c1ccc(N2C(=O)[C@H]3[C@H](ON(c4ccccc4)[C@H]3c3ccccc3)C2=O)cc1 (relative stereo)	23.9 nM
O=C(O)c1ccc(N2C(=O)[C@@H]3[C@@H](ON(c4ccccc4)[C@H]3c3ccc(Cl)cc3)C2=O)cc1 (relative stereo)	20.9 nM
O=C(O)c1ccc(N2C(=O)[C@H]3[C@H](ON(c4ccccc4)[C@H]3c3ccccc3Cl)C2=O)cc1 (relative stereo)	21.8 nM
COc1cccc([C@H]2[C@H]3C(=O)N(c4ccc(C(=O)O)cc4)C(=O)[C@H]3ON2c2ccccc2)c1 (relative stereo)	19.1 nM
COc1cccc([C@H]2[C@@H]3C(=O)N(c4ccc(C(=O)O)cc4)C(=O)[C@@H]3ON2c2ccccc2)c1 (relative stereo)	20.5 nM
COc1ccc([C@H]2[C@@H]3C(=O)N(c4ccc(C(=O)O)cc4)C(=O)[C@@H]3ON2c2ccc(C)cc2)cc1 (relative stereo)	18 nM
O=C(O)c1ccc(N2C(=O)[C@@H]3[C@@H](ON(c4ccccc4)[C@H]3c3ccccc3[N+](=O)[O-])C2=O)cc1 (relative stereo)	26.9 nM
COc1ccc([C@H]2[C@@H]3C(=O)N(c4ccc(C(=O)O)cc4)C(=O)[C@@H]3ON2c2ccccc2)cc1	19.1 nM
O=C(O)c1ccc(N2C(=O)[C@@H]3[C@@H](ON(c4ccccc4)[C@H]3c3ccccc3)C2=O)cc1 (relative stereo)	24.4 nM
COc1ccc([C@H]2[C@H]3C(=O)N(c4ccc(C(=O)O)cc4)C(=O)[C@H]3ON2c2ccccc2)cc1 (relative stereo)	18.8 nM
O=C(O)c1ccc(N2C(=O)[C@@H]3[C@@H](ON(c4ccccc4)[C@H]3c3ccc(O)cc3)C2=O)cc1 (relative stereo)	22.7 nM
Cc1ccc(N2O[C@@H]3C(=O)N(c4ccc(C(=O)O)cc4)C(=O)[C@@H]3[C@@H]2c2ccc([N+](=O)[O-])cc2)cc1 (relative stereo)	23.4 nM
COc1ccccc1[C@H]1[C@H]2C(=O)N(c3ccc(C(=O)O)cc3)C(=O)[C@H]2ON1c1ccc(C)cc1 (relative stereo)	19.1 nM
O=C(O)c1ccc(N2C(=O)[C@H]3[C@H](ON(c4ccccc4)[C@H]3c3cccc(Cl)c3)C2=O)cc1 (relative stereo)	20.1 nM
Cc1ccc(N2O[C@@H]3C(=O)N(c4ccc(C(=O)O)cc4)C(=O)[C@@H]3[C@@H]2c2ccccc2Cl)cc1 (relative stereo)	21.3 nM
Cc1ccc(N2O[C@H]3C(=O)N(c4ccc(C(=O)O)cc4)C(=O)[C@H]3[C@@H]2c2ccc([N+](=O)[O-])cc2)cc1	24.1 nM
O=C(O)c1ccc(N2C(=O)[C@H]3[C@H](ON(c4ccccc4)[C@H]3c3ccccc3O)C2=O)cc1 (relative stereo)	23.9 nM
COc1cccc([C@H]2[C@H]3C(=O)N(c4ccc(C(=O)O)cc4)C(=O)[C@H]3ON2c2ccc(C)cc2)c1 (relative stereo)	18.8 nM
Cc1ccc(N2O[C@H]3C(=O)N(c4ccc(C(=O)O)cc4)C(=O)[C@H]3[C@@H]2c2ccc(Cl)cc2)cc1	20.4 nM

SMILES	IC50
COc1ccccc1[C@H]1[C@@H]2C(=O)N(c3ccc(C(=O)O)cc3)C(=O)[C@@H]2ON1c1ccccc1 (relative stereo)	20.6 nM
O=C(O)c1ccc(N2C(=O)[C@H]3[C@H](ON(c4ccccc4)[C@H]3c3ccc(Cl)cc3)C2=O)cc1 (relative stereo)	19.7 nM
Cc1ccc(N2O[C@H]3C(=O)N(c4ccc(C(=O)O)cc4)C(=O)[C@H]3[C@@H]2c2ccc(O)cc2)cc1 (relative stereo)	22.5 nM
O=C(O)c1ccc(N2C(=O)[C@@H]3[C@@H](ON(c4ccccc4)[C@H]3c3ccccc3O)C2=O)cc1 (relative stereo)	24.8 nM
O=C(O)c1ccc(N2C(=O)[C@@H]3[C@@H](ON(c4ccccc4)[C@H]3c3ccccc3Cl)C2=O)cc1 (relative stereo)	22.4 nM
Cc1ccc(N2O[C@H]3C(=O)N(c4ccc(C(=O)O)cc4)C(=O)[C@H]3[C@@H]2c2ccccc2Cl)cc1 (relative stereo)	22.1 nM
Cc1ccc(N2O[C@@H]3C(=O)N(c4ccc(C(=O)O)cc4)C(=O)[C@@H]3[C@@H]2c2ccc(O)cc2)cc1 (relative stereo)	21.9 nM
COc1ccccc1[C@H]1[C@@H]2C(=O)N(c3ccc(C(=O)O)cc3)C(=O)[C@@H]2ON1c1ccc(C)cc1 (relative stereo)	20.2 nM
Cc1ccc(N2O[C@H]3C(=O)N(c4ccc(C(=O)O)cc4)C(=O)[C@H]3[C@@H]2c2ccccc2O)cc1 (relative stereo)	24.1 nM
Cc1ccc(N2O[C@@H]3C(=O)N(c4ccc(C(=O)O)cc4)C(=O)[C@@H]3[C@@H]2c2ccccc2[N+](=O)[O-])cc1 (relative stereo)	24.3 nM
O=C(O)c1ccc(N2C(=O)[C@H]3[C@H](ON(c4ccccc4)[C@H]3c3ccc([N+](=O)[O-])cc3)C2=O)cc1 (relative stereo)	25.8 nM
Cc1ccc(N2O[C@H]3C(=O)N(c4ccc(C(=O)O)cc4)C(=O)[C@H]3[C@@H]2c2ccccc2)cc1 (relative stereo)	22.4 nM
Cc1ccc(N2O[C@@H]3C(=O)N(c4ccc(C(=O)O)cc4)C(=O)[C@@H]3[C@@H]2c2cccc(Cl)c2)cc1 (relative stereo)	22.2 nM
Cc1ccc(N2O[C@@H]3C(=O)N(c4ccc(C(=O)O)cc4)C(=O)[C@@H]3[C@@H]2c2ccccc2)cc1 (relative stereo)	22.8 nM
O=C(O)c1ccc(N2C(=O)[C@@H]3[C@@H](ON(c4ccccc4)[C@H]3c3cccc(Cl)c3)C2=O)cc1 (relative stereo)	21.8 nM
COc1ccc([C@H]2[C@H]3C(=O)N(c4ccc(C(=O)O)cc4)C(=O)[C@H]3ON2c2ccc(C)cc2)cc1 (relative stereo)	17.5 nM
O=C(O)c1ccc(N2C(=O)[C@H]3[C@H](ON(c4ccccc4)[C@H]3c3ccc(O)cc3)C2=O)cc1 (relative stereo)	22.5 nM
Cc1ccc(N2O[C@@H]3C(=O)N(c4ccc(C(=O)O)cc4)C(=O)[C@@H]3[C@@H]2c2ccccc2O)cc1	23.2 nM
COc1cccc([C@H]2[C@@H]3C(=O)N(c4ccc(C(=O)O)cc4)C(=O)[C@@H]3ON2c2ccc(C)cc2)c1 (relative stereo)	19.9 nM
O=C(O)c1ccc(N2C(=O)[C@@H]3[C@@H](ON(c4ccccc4)[C@H]3c3ccc([N+](=O)[O-])cc3)C2=O)cc1 (relative stereo)	26.4 nM
Cc1ccc(N2O[C@@H]3C(=O)N(c4ccc(C(=O)O)cc4)C(=O)[C@@H]3[C@@H]2c2ccc(Cl)cc2)cc1 (relative stereo)	19.2 nM
COc1ccccc1[C@H]1[C@H]2C(=O)N(c3ccc(C(=O)O)cc3)C(=O)[C@H]2ON1c1ccccc1 (relative stereo)	19.2 nM

system: Mus musculus; test: Antiamnesic activity in mouse assessed as inhibition of scopolamine-induced escape latency time at 5 mg/kg, ip measured on day 4 by Morris water maze test (reference value: 78.7 +/- 5.7 secs); assay type: functional; conditions: route intraperitoneal

SMILES	Time
COc1ccc([C@H]2[C@H]3C(=O)N(c4ccc(C(=O)O)cc4)C(=O)[C@H]3ON2c2ccc(C)cc2)cc1 (relative stereo)	69.5 s

system: Mus musculus; test: Antiamnesic activity in scopolamine-induced amnesia mouse model assessed as increase in time spent in target quadrant at 10 mg/kg, ip measured on day 5 by Morris water maze test; assay type: functional, organism-based; parameters: dose 10 mg/kg; conditions: not given

SMILES	Activity
COc1ccc([C@H]2[C@H]3C(=O)N(c4ccc(C(=O)O)cc4)C(=O)[C@H]3ON2c2ccc(C)cc2)cc1 (relative stereo)	Active

target: Butyrylcholinesterase (Rattus norvegicus, UniProt Q9JKC1); test: Inhibition of BuChE activity in rat plasma using […] as substrate by Ellman's method; assay type: cell-free; conditions: not given
Sequence (Q9JKC1 whole entry): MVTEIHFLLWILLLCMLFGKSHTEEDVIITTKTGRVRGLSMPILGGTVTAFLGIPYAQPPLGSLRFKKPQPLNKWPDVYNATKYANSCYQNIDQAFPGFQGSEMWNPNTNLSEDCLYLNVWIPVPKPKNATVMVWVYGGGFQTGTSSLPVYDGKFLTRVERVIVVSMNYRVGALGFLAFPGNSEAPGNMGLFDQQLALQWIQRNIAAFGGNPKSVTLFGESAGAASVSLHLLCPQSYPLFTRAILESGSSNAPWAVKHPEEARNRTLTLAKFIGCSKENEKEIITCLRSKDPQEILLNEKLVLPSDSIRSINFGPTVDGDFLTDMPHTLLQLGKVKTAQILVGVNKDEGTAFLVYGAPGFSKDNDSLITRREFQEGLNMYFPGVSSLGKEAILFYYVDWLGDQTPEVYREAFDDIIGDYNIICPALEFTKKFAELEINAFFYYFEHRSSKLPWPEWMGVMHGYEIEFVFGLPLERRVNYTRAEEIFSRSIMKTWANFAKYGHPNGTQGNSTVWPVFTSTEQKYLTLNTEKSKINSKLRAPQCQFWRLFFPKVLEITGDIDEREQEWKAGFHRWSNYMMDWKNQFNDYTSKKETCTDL

SMILES	IC50
COc1ccc([C@H]2[C@H]3C(=O)N(c4ccc(C(=O)O)cc4)C(=O)[C@H]3ON2c2ccc(C)cc2)cc1 (relative stereo)	15300 nM

system: Mus musculus; test: Antiamnesic activity in mouse assessed as inhibition of scopolamine-induced escape latency time at 5 mg/kg, ip measured on day 1 by Morris water maze test (reference value: 89.7 +/- 3.8 secs); assay type: functional; conditions: route intraperitoneal

SMILES	Time
COc1ccc([C@H]2[C@H]3C(=O)N(c4ccc(C(=O)O)cc4)C(=O)[C@H]3ON2c2ccc(C)cc2)cc1 (relative stereo)	85.2 s
